Source: patent EP3822283A1, “SEMAPHORIN 3A NEURODEGENERATION MODULATORS, COMPOSITIONS AND USES THEREOF” (Consejo Superior de Investigaciones Científicas (CSIC), priority 2019, dated 2021)

Target: T1, Sema3A (Rattus norvegicus, UniProt Q63548)
T1 sequence (Q63548 21-772): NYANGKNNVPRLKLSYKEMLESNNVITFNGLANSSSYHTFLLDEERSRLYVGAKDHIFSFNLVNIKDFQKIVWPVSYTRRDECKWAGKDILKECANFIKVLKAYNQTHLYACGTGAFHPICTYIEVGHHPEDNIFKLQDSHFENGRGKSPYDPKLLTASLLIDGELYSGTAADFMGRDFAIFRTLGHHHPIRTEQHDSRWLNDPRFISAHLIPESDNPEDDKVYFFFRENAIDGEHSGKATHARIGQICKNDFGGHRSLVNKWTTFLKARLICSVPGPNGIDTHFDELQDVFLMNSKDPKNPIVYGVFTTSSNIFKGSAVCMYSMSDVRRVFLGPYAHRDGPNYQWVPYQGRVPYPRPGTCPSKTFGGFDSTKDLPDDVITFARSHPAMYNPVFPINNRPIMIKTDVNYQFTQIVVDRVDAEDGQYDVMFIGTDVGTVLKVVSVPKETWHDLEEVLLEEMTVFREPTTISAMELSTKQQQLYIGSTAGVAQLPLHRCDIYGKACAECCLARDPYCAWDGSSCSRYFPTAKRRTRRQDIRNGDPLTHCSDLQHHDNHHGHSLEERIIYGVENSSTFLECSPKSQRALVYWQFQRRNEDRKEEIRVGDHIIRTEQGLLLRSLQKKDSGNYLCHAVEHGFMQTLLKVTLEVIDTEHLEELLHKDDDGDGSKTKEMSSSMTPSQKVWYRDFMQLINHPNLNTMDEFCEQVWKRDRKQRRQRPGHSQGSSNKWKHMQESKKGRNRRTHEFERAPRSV
Method: To evaluate the potential of the Compound 2 to inhibit Sema3a in a relevant small animal model, a rat axotomy study was carried out. […] Adult male Sprague-Dawley rats (12-15 weeks old, 300 g) were anesthetized (50 mg/kg xylazine and 35 mg/kg ketamine), and their left optic nerves were exposed by lateral canthotomy. Briefly, the conjuctivae were incised lateral to the cornea, and the retractor bulbus muscles were separated. Through a small opening in the meninges (50-100 µm), the nerve fibers were completely transected at a distance of 2-3 mm from the globe. The procedure was performed without damage to the nerve vasculature and optic nerve blood supply and with minimal damage to the meninges by the use of a specially designed glass dissector with a 200- µm tip and a smooth blunt edge (Solomon et al., 1996, Journal of Neuroscience Methods, 70, 21-5). […] Clinical examination of the eyes was performed using a slit lamp, and the eyes were monitored for any signs of hyperemia, edema, dis- charge, fibrin, and other inflammatory parameters. […] Two independent and blinded researchers counted the number of labeled RGC in flat-mounted retinas by fluorescent microscopy. For each retina, 20 representative microscopic fields were evaluated: 10 fields from the peripheral area and 10 fields from the central area (each field covering an area of 0.069 mm2). […]

Question: `CCN(CC)CCN(CC(=O)N(CCN1CCCC1)CC(=O)N(CCC1CCCN1C)CC(N)=O)C(=O)OCc1ccccc1` (centres unmarked) [Compound 2, 2-[2-(1-methylpyrrolidin-2-yl)ethyl]-5-(2-pyrrolidin-1-yl)ethyl-8-benzyloxycarbonyl-11,11-diethyl-3,6-dioxo-2,5,8,11-tetraazaundecancarboxamide] was tested. Which “RGC survival compared to healthy rats” value (adult male Sprague-Dawley rats, optic nerve axotomy, single intravitreal dose 0.025 µg/eye immediately after surgery, 14 days after optic nerve surgery, 2 days after Di-Asp retrograde staining of RGC) did it give?
Answer: 30%

Question: What about the “prevention of RGC loss (neuroprotection)” value (rat optic nerve axotomy, single intravitreal dose 0.025 µg/eye in 4 µl PBS, labeled RGC counted in flat-mounted retinas) of the same compound?
Answer: neuroprotective
